This note sets out measurements from patent US5328921A, “Aryl pyridinium compounds which are useful in treating shock” (American Cyanamid Company, priority 1992, dated 1994).

Structures are written as SMILES.

The target in assay [1] is T1, PAF receptor (Oryctolagus cuniculus, UniProt G1TEI7).
T1 construct: centrifuged at 800 rpm for 10-15 minutes at room temperature to recover the platelet rich plasma (PRP); endogenous in cells; host or cells: rabbit platelets (platelet rich plasma from citrated blood of male New Zealand White rabbits)
In words: In vitro PAF antagonism: inhibition of PAF induced platelet aggregation in rabbit platelet rich plasma. The assay is classed as cell-based, rabbit (male New Zealand White). Particulars: rabbit PRP. As to the method:
Test compounds are evaluated as PAF receptor antagonists in vitro by measuring inhibition of PAF (platelet activating factor) induced platelet aggregation. Platelet aggregation is measured by a modification of the method described in A. Wissnet, et. al., J. Med. Chem., 27 1174, 1984.
Approximately 120-240 ml of blood is collected by cardiac puncture from unanesthetized male New Zealand White rabbits (Whaley's Summit View Farms, Belvedere, N.J.) with the use of 3.2% sodium citrate anticoagulant (1 part of citrate/10 parts of blood). All syringes and pipers are plastic. The blood is gently mixed and immediately centrifuged at 800 rpm for 10-15 minutes at room temperature to recover the platelet rich plasma (PRP). Platelet poor plasma (PPP) is prepared by centrifuging PRP at 2800 rpm for 10 minutes at room temperature.
Dilutions (113000) of PRP in Isoton, diluent are made and platelet counts are determined on a Coulter Thrombocounter which is standardized with platelet reference standards (Interscience Platelet Control, Portland, Oreg.). PRP platelet counts are adJusted to approximately 400,000-500,000 platelets/11 by the addition of PPP.
L-PAF (Platelet Activating Factor) is obtained from Calbiochem. A stock solution of 1-2 E-3M is prepared in 10% ethanol in water or 100% methanol and serial working dilutions are made using saline. E-3M stock solutions of test compounds are prepared in 100% methanol and serially diluted in PBS. Sonication of samples before testing in biological screens assists in the solubility of compounds in the liquid medium. All solutions are made up in plastic tubes, stored on ice and protected from heat and light. Solutions are prepared fresh or frozen at -20° C. and used within 48 hours.
Incubation mixtures consisted of 400 11 PRP, 50 11 of saline diluent or test compound and 50 11 of PAF agohist. More specifically, 40011 of PRP is stabilized in a cuvette for 1-2 minutes at 37° C. in the aggregometer to achieve a stable baseline, then 50 11 of saline or test compound is added and incubated for 5 minutes before addition of the challenge concentration of PAF. A submaximal concentration is determined from the dose response curve for PAF for that experiment. In general, the challenge concentration is 5E-8 or 1E-7M. Aggregation is monitored for 5 minutes. Samples containing test compound or diluent are run simultaneously for comparison. Test compounds are initially evaluated at a screening concentration of 1E-SM.
The recording equipment consists of a dual channel Chronolog aggregometer connected to a dual channel 10MV full scale deflection Omniscribe chart recorder (Houston Instruments). The chart recorder is calibrated daily with the use of a suspension of Bio-Rad latex beads (S-X 12 400 mesh) which has a density slightly greater than rabbit PRP. The bead suspension is used to set the 0% light transmission mark and clear water is used to set the 100% light transmission mark. These limits defined a full scale deflection. The aggregation traces are analyzed by a digitizing method (C. Kohler and B. Zoltan, J. Pharm. Methods, 12, 113, 1984) with x, y coordinate data stored in a computer file. A suitable program computes parameters of interest such as the magnitude of aggregation.

Assay [2] deals with PAF induced lethality in mice. In words: PAF induced lethality in mice. As to conditions: Mus musculus; 0.5 mg/kg IP 1/2 hour before lethal PAF I.V. challenge; alive after 2 hours; control (saline) 10; read-out: % Survival. The assay is classed as in vivo. The protocol:
PAF given I.V. to mice causes an immediate hypotensive shock leading to death in 1 hour or less. Compounds are given intraperitoneally at 1/2 hour prior to the PAF challenge. Animals alive after 2 hours are counted and the activity of test compounds expressed as survival corrected for any control (saline treated) animals which survived the PAF challenge.

T1 sequence (G1TEI7 1-342): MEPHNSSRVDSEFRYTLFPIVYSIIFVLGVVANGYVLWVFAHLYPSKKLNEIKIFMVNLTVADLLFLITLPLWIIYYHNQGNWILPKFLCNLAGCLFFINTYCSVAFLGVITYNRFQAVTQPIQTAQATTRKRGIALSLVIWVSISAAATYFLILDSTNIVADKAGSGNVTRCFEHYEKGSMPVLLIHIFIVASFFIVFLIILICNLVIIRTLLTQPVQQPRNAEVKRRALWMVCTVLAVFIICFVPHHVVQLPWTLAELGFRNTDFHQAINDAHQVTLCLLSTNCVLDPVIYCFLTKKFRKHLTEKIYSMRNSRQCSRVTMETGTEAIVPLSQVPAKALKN

`CCCCCCCCCCCCCCOc1ccccc1CN(Cc1cccc[n+]1C)C(C)=O` [2-[[Acetyl[[2-(tetradecyloxy)phenyl]methyl]amino]-methyl]-1-methylpyridinium iodide]: the IC50 in assay [1] (PAF challenge 5.00E-08 M) was 43 µM. In addition, the responders at 0.5 mg/kg in assay [2] came to 23%.

In assay [1] (PAF challenge 1.00E-08 M), `CCCCCCCCCCCCCCOc1ccc(CN(Cc2ccc[n+](C)c2)C(C)=O)cc1` [3-[[Acetyl[[4-(tetradecyloxy)phenyl]methyl]amino]-methyl]-1-methylpyridinium iodide] registered an IC50 of 14 µM. Further, the responders at 0.5 mg/kg in assay [2] is 38%.

For orientation: IC50 means the concentration needed to halve the response being measured. Higher therefore signals weaker potency in that assay.
